Laboratory results from ChEMBL document CHEMBL1201862, “PubChem BioAssay data set” (2004).
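Grown in 96-well plates, cells were treated for 48 hours with each compound at five concentrations. Insufficient inhibition: endpoint recorded as highest concentration tested. Abbreviation: GI50, concentration required for 50% inhibition of growth.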 Calls of active or inactive are those of the source. Cut-off read from the data, not from the text of the source: active = GI50 up to about 1.1 µM and inactive = higher.

What was measured:
Test in all cases: NCI tumour cell line growth inhibition, 48 h
786-0 = system: 786-0
ACHN = system: ACHN
DU-145 = system: DU-145
HCC 2998 = system: HCC 2998
HOP-92 = system: HOP-92
KM12 = system: KM12
LOX IMVI = system: LOX IMVI
MDA-N = system: MDA-N
NCI/ADR-RES = system: NCI/ADR-RES
OVCAR-4 = system: OVCAR-4
OVCAR-5 = system: OVCAR-5
RXF 393 = system: RXF 393
SF-295 = system: SF-295
SF-539 = system: SF-539
SK-MEL-2 = system: SK-MEL-2
SNB-19 = system: SNB-19
SW-620 = system: SW-620
UACC-257 = system: UACC-257
CCRF-CEM = system: CCRF-CEM
SNB-75 = system: SNB-75

Measured: GI50

COc1ccc2c(c1OC)C(Br)CCC(Br)(Br)C2=O (stereo not drawn)
inactive: 786-0 4.23 µM | ACHN 1.94 µM | DU-145 12.4 µM | HCC 2998 11.6 µM | HOP-92 3.52 µM | KM12 16.3 µM | LOX IMVI 2.93 µM | MDA-N 3.99 µM | NCI/ADR-RES 14.1 µM | OVCAR-4 6 µM | OVCAR-5 17.5 µM | RXF 393 3.91 µM | SF-295 17.6 µM | SF-539 3.17 µM | SK-MEL-2 14.4 µM | SNB-19 15.5 µM | SW-620 2.25 µM | UACC-257 14.6 µM

Oc1ccc(Cl)cc1Sc1cc(Cl)ccc1O [FENTICLOR]
inactive: 786-0 18.1 µM | ACHN 8.65 µM | CCRF-CEM 5.92 µM | DU-145 14.2 µM | HOP-92 3.15 µM | KM12 17.5 µM | LOX IMVI 8.55 µM | MDA-N 7.24 µM | NCI/ADR-RES 12.5 µM | OVCAR-4 10 µM | OVCAR-5 13.4 µM | RXF 393 14.2 µM | SF-295 13.5 µM | SF-539 17.7 µM | SK-MEL-2 10.5 µM | SNB-19 12.9 µM | SNB-75 16.2 µM | SW-620 16.7 µM | UACC-257 6.65 µM

C/C=C\C(CC(=O)NCCC1CN(S(=O)(=O)c2ccc(C)cc2)c2ccccc21)CC(=O)OC (stereo not drawn)
inactive: 786-0 > 100 µM | ACHN > 100 µM | DU-145 > 100 µM | HCC 2998 > 100 µM | HOP-92 > 100 µM | KM12 > 100 µM | MDA-N > 100 µM | NCI/ADR-RES > 100 µM | OVCAR-4 > 100 µM | OVCAR-5 > 100 µM | RXF 393 > 100 µM | SF-295 > 100 µM | SK-MEL-2 > 100 µM | SNB-19 > 100 µM | SNB-75 > 100 µM | SW-620 > 100 µM | UACC-257 > 100 µM

Cc1nc2[nH]ccn2c(=O)c1CCCl
inactive: 786-0 25.5 µM | ACHN 23.1 µM | CCRF-CEM 18 µM | DU-145 23.6 µM | HCC 2998 19.2 µM | HOP-92 21.4 µM | KM12 20.4 µM | LOX IMVI 16.6 µM | MDA-N 21.9 µM | NCI/ADR-RES 26.5 µM | OVCAR-4 20.1 µM | OVCAR-5 > 100 µM | RXF 393 19.4 µM | SF-295 31.6 µM | SF-539 17.1 µM | SNB-19 57.1 µM | SNB-75 39.3 µM | SW-620 17.3 µM | UACC-257 94.2 µM

CN(C)CCCNc1c2c(=O)n(C)c(=O)nc-2n(C)c2ccccc12
inactive: 786-0 5.68 µM | ACHN 5.45 µM | CCRF-CEM 3.4 µM | DU-145 6.41 µM | HOP-92 17 µM | KM12 3.58 µM | LOX IMVI 3.87 µM | MDA-N 4.2 µM | NCI/ADR-RES 67 µM | OVCAR-4 4.72 µM | OVCAR-5 6.1 µM | RXF 393 7.8 µM | SF-295 6.43 µM | SF-539 6.73 µM | SK-MEL-2 2.52 µM | SNB-19 6.56 µM | SNB-75 5.15 µM | SW-620 3.7 µM | UACC-257 4.86 µM

COc1cccc(CCNc2c(C#N)c3n(c4ccccc4[n+]3C)c3ncccc23)c1
inactive: 786-0 1.76 µM | ACHN 16.7 µM | DU-145 5.42 µM | HCC 2998 1.93 µM | HOP-92 27.7 µM | KM12 2 µM | LOX IMVI 1.74 µM | MDA-N 5.2 µM | NCI/ADR-RES 6.93 µM | OVCAR-4 2.04 µM | OVCAR-5 15.3 µM | RXF 393 13.5 µM | SF-295 1.69 µM | SF-539 1.58 µM | SK-MEL-2 21.4 µM | SNB-19 5.9 µM | SNB-75 5.96 µM | SW-620 2.47 µM | UACC-257 21.9 µM

CCOC(=O)Nc1cc2ccccc2c(/N=N/c2ccccc2)c1O
inactive: 786-0 34.8 µM | ACHN > 100 µM | CCRF-CEM > 100 µM | DU-145 > 100 µM | HCC 2998 > 100 µM | HOP-92 88.7 µM | KM12 > 100 µM | MDA-N > 100 µM | NCI/ADR-RES > 100 µM | OVCAR-4 20.2 µM | OVCAR-5 > 100 µM | RXF 393 20.7 µM | SF-295 31.7 µM | SF-539 13 µM | SK-MEL-2 > 100 µM | SNB-19 84.1 µM | SNB-75 31 µM | SW-620 > 100 µM | UACC-257 > 100 µM

Cc1ccc(C2(c3ccc(C)c(O)c3C)CCN(C)CC2)c(C)c1O
inactive: 786-0 51.2 µM | ACHN > 100 µM | CCRF-CEM 60.1 µM | DU-145 > 100 µM | HOP-92 > 100 µM | KM12 46.5 µM | LOX IMVI 34.8 µM | MDA-N 58.5 µM | NCI/ADR-RES > 100 µM | OVCAR-4 > 100 µM | OVCAR-5 > 100 µM | RXF 393 78.5 µM | SF-295 33.3 µM | SK-MEL-2 26.9 µM | SNB-19 62.4 µM | SNB-75 > 100 µM | SW-620 88.1 µM | UACC-257 15.8 µM

C[C@@H]1CC[C@@]2(C)C(C(=O)O)=CCCC2[C@@]1(C)CC(=O)c1ccoc1 (stereo partly drawn)
inactive: 786-0 > 25 µM | ACHN > 25 µM | CCRF-CEM > 25 µM | DU-145 > 25 µM | HOP-92 > 25 µM | KM12 > 25 µM | LOX IMVI > 25 µM | MDA-N > 25 µM | NCI/ADR-RES > 25 µM | OVCAR-4 > 25 µM | OVCAR-5 > 25 µM | RXF 393 > 25 µM | SF-295 > 25 µM | SF-539 > 25 µM | SK-MEL-2 > 25 µM | SNB-19 > 25 µM | SNB-75 > 25 µM | SW-620 > 25 µM | UACC-257 > 25 µM

N#CCCN(CCC#N)c1ccc(/C=C2\N=C(c3ccccc3)N(NC(=O)c3ccncc3)C2=O)cc1
inactive: 786-0 > 100 µM | ACHN > 100 µM | DU-145 > 100 µM | HOP-92 > 100 µM | KM12 > 100 µM | LOX IMVI > 100 µM | MDA-N > 100 µM | NCI/ADR-RES > 100 µM | OVCAR-4 > 100 µM | OVCAR-5 > 100 µM | RXF 393 > 100 µM | SF-295 > 100 µM | SF-539 > 100 µM | SK-MEL-2 > 100 µM | SNB-19 > 100 µM | SW-620 > 100 µM | UACC-257 > 100 µM

CCOC(=O)C(O)(C(=O)OCC)c1cc(C(C)(C)C)c(O)c(C(C)(C)C)c1
inactive: 786-0 51.4 µM | ACHN 41.3 µM | CCRF-CEM 37.2 µM | DU-145 92 µM | HOP-92 26.9 µM | KM12 34.8 µM | LOX IMVI 37.2 µM | MDA-N 36.4 µM | NCI/ADR-RES 18.6 µM | OVCAR-4 > 100 µM | OVCAR-5 41.2 µM | RXF 393 21.1 µM | SF-295 22.5 µM | SF-539 28.4 µM | SK-MEL-2 27.7 µM | SNB-19 26 µM | SNB-75 27.4 µM | SW-620 37 µM | UACC-257 34.4 µM
